The conditions of series [1]: Crystal; DTA.
A short description of series [2]: Molar enthalpy of transition or fusion. The settings on record: Crystal; DSC.

± gives the expanded uncertainty stated by the source.

For the compound `O=C(O)C=Cc1ccc(O)cc1` [3-(4-hydroxyphenyl)-2-propenoic acid], the Normal melting temperature in series [1] worked out at 219.20 ± 1 °C. Moreover, the “Molar enthalpy of transition or fusion” value in series [2] is 6.55 ± 0.956 kcal/mol.

The values above are taken from the NIST ThermoML archive (doi:10.1016/j.jct.2013.02.013).
